Results published in publication PMC11352859, “Functionalized Congeners of 2H-Chromene P2Y6 Receptor Antagonists” (Cells, 2024).
“And” between values parts separate entries of the source, which are not always exact repeats. Equal values may be shown once.

Tests used:
hP2Y6R = biological target: T1, hP2Y6R (Homo sapiens, UniProt Q15077); experiment: UDP (100 nM)-induced Ca2+ mobilization in hP2Y6R stably transfected 1321N1 astrocytoma cells; assay type: cell-based; settings: for IC50: UDP 100 nM, 3–4 independent triplicate determinations, read-out: IC50, hP2Y6R (Mean ± SEM)
T1 construct: expressed in transfected cells
Description: To screen for P2Y6R antagonist activity, PLC-mediated calcium mobilization assays were carried out using the recombinant human P2Y6R stably expressed in 1321N1 astrocytoma cells (hP2Y6R-1321N1) according to the previously published method. Briefly, the hP2Y6R-1321N1 cells were seeded on 96-well black plates and incubated overnight. The antagonists were pretreated along with the FLIPR dye (Calcium 6 assay kit, Molecular Devices, San Jose, CA, USA) containing 5 mM probenecid for 45 min, prior to agonist addition followed by an immediate intracellular Ca^2+ measurement. […] Here, probenecid was used as an organic anion transporter inhibitor to prevent the efflux of the dye into the extracellular environment. During incubation, the membrane permeable dye enters the cytoplasm and cleaves the acetoxymethyl protection to enable Ca^2+ binding. When the P2Y6R was activated by UDP, the increased calcium concentration was directly measured by intracellular changes in the fluorescence intensity with a Fluorescent Imaging Plate Reader (FLIPR^TETRA, Molecular Devices, San Jose, CA, USA).

[1] = system: 45 target sites (receptors, channels, and transporters); experiment: PDSP off-target binding screen at 45 target sites; set-up: species or system human; settings: PDSP binding assays
Description: (§1) Table S2. Off-target screening (to replace table later). We thank Dr. Bryan L. Roth (Univ. North Carolina at Chapel Hill) and National Institute of Mental Health's Psychoactive Drug Screening Program (Contract # HHSN-271-2008-00025-C) for screening data. Reference: Besnard et al.
(§2) Procedures: https://pdsp.unc.edu/pdspweb/content/UNC-CH%20Protocol%20Book.pdf […]
(§3) nucleosides were found at the following sites (human unless noted): 5HT1A, 5HT1B, 5HT1D, […]
(§4) β3, BZP rat brain site, D1, D2, D3, D4, D5, GABAA, H1, H2, H3, H4, M1, M2, M5, δ-opioid receptor (DOR), κ-opioid receptor (KOR), μ-opioid receptor (MOR), σ1, σ2, DAT, NET, SERT. Ki values […]
(§5) Compound # PDSP # Receptor LogKi Ki (nM)

α2A = biological target: T2, α2A (Homo sapiens, UniProt P08913); experiment: PDSP binding assay, α2A; settings: PDSP, mean, n = 2; read-out: Ki, α2A
T2 construct: NIMH Psychoactive Drug Screening Program (PDSP)
T2 sequence (P08913 1-465): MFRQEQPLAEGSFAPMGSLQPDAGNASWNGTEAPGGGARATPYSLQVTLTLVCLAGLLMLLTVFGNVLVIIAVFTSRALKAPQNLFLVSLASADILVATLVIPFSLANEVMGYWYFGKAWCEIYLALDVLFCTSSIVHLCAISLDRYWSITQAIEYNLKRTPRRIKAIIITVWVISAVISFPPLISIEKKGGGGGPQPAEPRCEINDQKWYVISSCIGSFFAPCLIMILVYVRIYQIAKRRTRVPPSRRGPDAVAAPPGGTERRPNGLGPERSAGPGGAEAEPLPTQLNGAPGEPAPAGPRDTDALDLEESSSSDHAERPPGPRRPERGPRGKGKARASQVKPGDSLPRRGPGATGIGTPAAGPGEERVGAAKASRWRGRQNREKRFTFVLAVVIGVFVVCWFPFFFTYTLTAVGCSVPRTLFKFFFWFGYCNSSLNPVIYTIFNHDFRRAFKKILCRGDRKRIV
Description: as §1, §2, §3, §4, §5

hP2Y14R = biological target: T3, hP2Y14R (Homo sapiens, UniProt Q15391); experiment: whole-cell binding of fluorescent antagonist MRS4174 in CHO-hP2Y14R cells (flow cytometry); settings: CHO-hP2Y14, competitive binding, flow cytometer
T3 construct: expressed in transfected cells
T3 sequence (Q15391 1-338): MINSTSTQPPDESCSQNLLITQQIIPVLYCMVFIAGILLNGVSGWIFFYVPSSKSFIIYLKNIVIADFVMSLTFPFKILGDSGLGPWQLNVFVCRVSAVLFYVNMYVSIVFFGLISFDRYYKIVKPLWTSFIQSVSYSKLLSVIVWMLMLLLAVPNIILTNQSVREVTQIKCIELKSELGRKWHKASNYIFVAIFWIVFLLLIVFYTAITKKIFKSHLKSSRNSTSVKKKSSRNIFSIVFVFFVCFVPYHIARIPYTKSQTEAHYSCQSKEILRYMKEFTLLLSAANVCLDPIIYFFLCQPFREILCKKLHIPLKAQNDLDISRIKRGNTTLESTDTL

5-HT1D = biological target: T4, 5-HT1D (Homo sapiens, UniProt P28221); experiment: PDSP binding assay, 5-HT1D; settings: PDSP, mean, n = 2; read-out: Ki, 5-HT1D
T4 construct: NIMH Psychoactive Drug Screening Program (PDSP)
Description: as §1, §2, §3, §4, §5

α2B = biological target: T5, α2B (Homo sapiens, UniProt P18089); experiment: PDSP binding assay, α2B; settings: mean, n = 2
T5 construct: NIMH Psychoactive Drug Screening Program (PDSP)
T5 sequence (P18089 1-450): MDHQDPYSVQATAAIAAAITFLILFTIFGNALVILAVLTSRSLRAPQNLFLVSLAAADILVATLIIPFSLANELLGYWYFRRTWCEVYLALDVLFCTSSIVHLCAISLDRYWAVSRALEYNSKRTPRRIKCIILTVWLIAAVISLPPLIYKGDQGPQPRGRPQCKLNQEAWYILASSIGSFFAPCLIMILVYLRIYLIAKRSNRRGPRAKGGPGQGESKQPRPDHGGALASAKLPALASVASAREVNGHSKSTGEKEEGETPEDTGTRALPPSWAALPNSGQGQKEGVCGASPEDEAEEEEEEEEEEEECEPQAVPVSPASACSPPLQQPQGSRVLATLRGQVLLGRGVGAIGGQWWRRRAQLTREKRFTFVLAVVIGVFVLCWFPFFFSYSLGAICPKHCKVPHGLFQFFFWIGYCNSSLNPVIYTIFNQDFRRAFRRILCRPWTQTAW
Description: as §1, §2, §3, §4, §5

H1 = biological target: T6, H1 (Homo sapiens, UniProt P35367); experiment: PDSP binding assay, H1; settings: PDSP, mean, n = 2; read-out: Ki, H1
T6 construct: NIMH Psychoactive Drug Screening Program (PDSP)
Description: as §1, §2, §3, §4, §5

D5 = biological target: T7, D5 (Homo sapiens, UniProt P21918); experiment: PDSP binding assay, D5; settings: PDSP, mean, n = 2; read-out: Ki, D5
T7 construct: NIMH Psychoactive Drug Screening Program (PDSP)
Description: as §1, §2, §3, §4, §5

HeLa cells = experiment: MTT cell viability assay, HeLa cells; assay type: cell-based, human; settings: 12 h, MTT
Description: (§6) The 1321N1 astrocytoma (hP2Y6R-overexpressing) and HeLa (non-transfected) cell lines were cultured in Dulbecco’s modified Eagle’s medium (DMEM, HyClone, Logan, UT, USA) supplemented with 5% heat-inactivated fetal bovine serum (FBS, HyClone, UT, USA), 100 U/mL penicillin, and 100 µg/mL streptomycin in 5% CO2 at 37 °C. The cell viability was determined using an MTT kit (Sigma, St. Louis, MO, USA) according to the manufacturer’s instructions. Briefly, 1 × 10^4 cells were seeded in triplicate in 96-well plates. The hP2Y6R-astrocytoma and HeLa cells were treated with a P2Y6R agonist and antagonists at a range of concentrations and incubated for 12 h. The cell viability was measured at 490 nm using a SpectraMax-M5 Spectrometer (Molecular Devices, San Jose, CA, USA).

[2] = system: hP2Y6R-1321N1 human astrocytoma cells; experiment: MTT cell viability assay, hP2Y6R-1321N1 astrocytoma cells; assay type: cell-based; settings: P2Y6R-astrocytoma, 12 h, MTT
Description: as §6

T1 sequence (Q15077 whole entry): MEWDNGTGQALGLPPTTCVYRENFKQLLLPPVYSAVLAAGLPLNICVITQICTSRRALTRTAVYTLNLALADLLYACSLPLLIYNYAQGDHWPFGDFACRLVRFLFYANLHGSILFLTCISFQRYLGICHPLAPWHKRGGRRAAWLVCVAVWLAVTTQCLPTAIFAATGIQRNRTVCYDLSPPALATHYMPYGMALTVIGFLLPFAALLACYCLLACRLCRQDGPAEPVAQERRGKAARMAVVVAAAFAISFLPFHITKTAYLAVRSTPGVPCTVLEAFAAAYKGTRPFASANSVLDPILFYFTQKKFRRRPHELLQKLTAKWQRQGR
T7 sequence (P21918 whole entry): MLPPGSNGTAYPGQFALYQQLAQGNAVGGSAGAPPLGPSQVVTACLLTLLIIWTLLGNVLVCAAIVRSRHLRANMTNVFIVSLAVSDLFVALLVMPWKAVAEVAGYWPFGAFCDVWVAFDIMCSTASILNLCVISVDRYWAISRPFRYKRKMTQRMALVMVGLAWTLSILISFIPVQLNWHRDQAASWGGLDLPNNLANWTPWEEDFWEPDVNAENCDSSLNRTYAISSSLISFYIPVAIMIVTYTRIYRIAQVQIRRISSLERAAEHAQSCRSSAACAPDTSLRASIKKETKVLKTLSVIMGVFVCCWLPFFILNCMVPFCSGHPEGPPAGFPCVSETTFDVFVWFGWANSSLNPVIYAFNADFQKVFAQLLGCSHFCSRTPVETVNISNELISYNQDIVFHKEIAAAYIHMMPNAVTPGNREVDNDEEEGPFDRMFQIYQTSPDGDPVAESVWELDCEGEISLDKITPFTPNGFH
T6 sequence (P35367 whole entry): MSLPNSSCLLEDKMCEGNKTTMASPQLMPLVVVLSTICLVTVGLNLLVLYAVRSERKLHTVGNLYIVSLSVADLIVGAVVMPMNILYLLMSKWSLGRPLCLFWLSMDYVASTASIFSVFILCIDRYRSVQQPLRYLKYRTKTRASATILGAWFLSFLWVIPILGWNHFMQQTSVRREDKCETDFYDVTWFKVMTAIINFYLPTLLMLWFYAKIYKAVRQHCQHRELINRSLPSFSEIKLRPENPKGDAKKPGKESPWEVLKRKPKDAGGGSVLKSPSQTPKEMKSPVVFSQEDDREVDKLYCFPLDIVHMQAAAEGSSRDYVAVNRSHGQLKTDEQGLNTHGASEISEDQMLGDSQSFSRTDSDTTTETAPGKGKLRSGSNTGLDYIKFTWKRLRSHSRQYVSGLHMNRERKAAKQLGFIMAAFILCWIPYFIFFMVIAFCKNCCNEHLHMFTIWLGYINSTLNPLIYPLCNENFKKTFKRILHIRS
T4 sequence (P28221 whole entry): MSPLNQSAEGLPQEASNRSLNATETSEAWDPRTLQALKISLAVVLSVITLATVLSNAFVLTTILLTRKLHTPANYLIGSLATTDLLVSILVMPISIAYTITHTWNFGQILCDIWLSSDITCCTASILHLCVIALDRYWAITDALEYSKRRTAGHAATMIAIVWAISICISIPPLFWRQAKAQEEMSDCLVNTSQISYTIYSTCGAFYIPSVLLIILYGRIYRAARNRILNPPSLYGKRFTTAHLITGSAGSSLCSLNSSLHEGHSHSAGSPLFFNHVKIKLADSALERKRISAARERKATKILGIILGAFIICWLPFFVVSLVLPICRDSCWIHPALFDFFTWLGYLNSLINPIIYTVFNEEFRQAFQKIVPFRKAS

## NCCCCCC#Cc1ccc2c(c1)C=C([N+](=O)[O-])C(C(F)(F)F)O2 (stereo not drawn) [Compound 27]
hP2Y6R
  IC50: 12.4 ± 1.3 µM

## CC(C)(C)OC(=O)NCCCCCCC#Cc1ccc2c(c1)C=C([N+](=O)[O-])C(C(F)(F)F)O2 (stereo not drawn) [Compound 28]
hP2Y6R
  IC50: 10.5 ± 6.5 µM

## NCCCCCCC#Cc1ccc2c(c1)C=C([N+](=O)[O-])C(C(F)(F)F)O2 (stereo not drawn) [Compound 29]
hP2Y6R
  IC50: 20 ± 5.1 µM

## CC(C)(C)C(=O)NCCCCCCCC#Cc1ccc2c(c1)C=C([N+](=O)[O-])C(C(F)(F)F)O2 (stereo not drawn) [Compound 31]
[1]
  off-target interactions at 45 target sites: only two weak interactions
α2A
  Ki: 3.5 µM
hP2Y6R
  IC50: 17.3 ± 5.2 µM

## NCCCCCCCC#Cc1ccc2c(c1)C=C([N+](=O)[O-])C(C(F)(F)F)O2 (stereo not drawn) [Compound 32]
hP2Y6R
  IC50: 6.37 ± 1.82 µM

## CC(C)(C)OC(=O)NCCCCCCCCC#Cc1ccc2c(c1)C=C([N+](=O)[O-])C(C(F)(F)F)O2 (stereo not drawn) [Compound 33]
hP2Y6R
  IC50: 45.4 ± 17.7 µM

## NCCCCCCCCC#Cc1ccc2c(c1)C=C([N+](=O)[O-])C(C(F)(F)F)O2 (stereo not drawn) [Compound 34]
hP2Y6R
  IC50: 20 ± 5.2 µM

## O=C(O)CCOCCOCCOCCOCC#Cc1ccc2c(c1)C=C([N+](=O)[O-])C(C(F)(F)F)O2 (stereo not drawn) [Compound 35]
hP2Y6R
  IC50: 63.3 ± 30 µM

## O=[N+]([O-])C1=Cc2cccc(C#CCCCCCCCCBr)c2OC1C(F)(F)F (stereo not drawn) [Compound 36, 8-(10-Bromodec-1-yn-1-yl)-3-nitro-2-(trifluoromethyl)-2H-chromene]
hP2Y6R
  IC50: 4.79 ± 1.45 µM

## CC(C)(C)OC(=O)NCCCCCCCC#Cc1cccc2c1OC(C(F)(F)F)C([N+](=O)[O-])=C2 (stereo not drawn) [Compound 37]
hP2Y14R
  IC50: 31.2 ± 12.2 µM
α2A
  Ki: 5.2 µM
5-HT1D
  Ki: 3.5 µM
α2B
  Ki: 4.8 µM
H1
  Ki: 7.3 µM
hP2Y6R
  IC50: 4.96 ± 1.96 µM
hP2Y6R; hP2Y6R IC50 ratio
  fold lower affinity compared to 30: 31 fold
D5
  Ki: 4.2 µM

## NCCCCCCCC#Cc1cccc2c1OC(C(F)(F)F)C([N+](=O)[O-])=C2 (stereo not drawn) [Compound 38]
hP2Y6R
  IC50: 13 ± 3.9 µM

## CC(C)(C)OC(=O)NCCCCCCCCC#Cc1cccc2c1OC(C(F)(F)F)C([N+](=O)[O-])=C2 (stereo not drawn) [Compound 39]
hP2Y6R
  IC50: 23.8 ± 6.8 µM

## NCCCCCCCCC#Cc1cccc2c1OC(C(F)(F)F)C([N+](=O)[O-])=C2 (stereo not drawn) [Compound 40]
hP2Y6R
  IC50: 20 to 30 µM and 34.8 µM

## O=C(O)CCOCCOCCOCCOCC#Cc1cccc2c1OC(C(F)(F)F)C([N+](=O)[O-])=C2 (stereo not drawn) [Compound 41]
hP2Y6R
  IC50: > 50 µM

## O=[N+]([O-])C1=Cc2cc(F)ccc2OC1C(F)(F)F (stereo not drawn) [MRS4830, 6-fluoro-3-nitro-2-(trifluoromethyl)-2H-chromene]
HeLa cells; 0.1 µM
  % survival: 94%
HeLa cells; 0.5 µM
  % survival: 91%
HeLa cells; 1 µM
  % survival: 93%
HeLa cells; 5 µM
  % survival: 87%
HeLa cells; 10 µM
  % survival: 83%
[2]; 0.1 µM
  % survival: 100%
[2]; 0.5 µM
  % survival: 102%
[2]; 1 µM
  % survival: 101%
[2]; 5 µM
  % survival: 96%
[2]; 10 µM
  % survival: 89%
